According to US8563513B2, “Parathyroid hormone peptides and parathyroid hormone-related protein peptides and methods of use” (Van Andel Research Institute, priority 2009, dated 2013):
Like-named read-outs stand apart in the source and are kept apart here. Where no end group is shown, it is not given here.

How the values were obtained:
[1] = target: T1, G protein-coupled receptor (RG) conformation of PTH1R (Homo sapiens, UniProt Q03431); assay: Receptor binding assay in cell membranes, RG conformation; conditions: for IC50: n = 3, receptor co-expressed with dominant negative Gαs
T1 construct: expressed in transfected cells
T1 sequence (Q03431 27-593): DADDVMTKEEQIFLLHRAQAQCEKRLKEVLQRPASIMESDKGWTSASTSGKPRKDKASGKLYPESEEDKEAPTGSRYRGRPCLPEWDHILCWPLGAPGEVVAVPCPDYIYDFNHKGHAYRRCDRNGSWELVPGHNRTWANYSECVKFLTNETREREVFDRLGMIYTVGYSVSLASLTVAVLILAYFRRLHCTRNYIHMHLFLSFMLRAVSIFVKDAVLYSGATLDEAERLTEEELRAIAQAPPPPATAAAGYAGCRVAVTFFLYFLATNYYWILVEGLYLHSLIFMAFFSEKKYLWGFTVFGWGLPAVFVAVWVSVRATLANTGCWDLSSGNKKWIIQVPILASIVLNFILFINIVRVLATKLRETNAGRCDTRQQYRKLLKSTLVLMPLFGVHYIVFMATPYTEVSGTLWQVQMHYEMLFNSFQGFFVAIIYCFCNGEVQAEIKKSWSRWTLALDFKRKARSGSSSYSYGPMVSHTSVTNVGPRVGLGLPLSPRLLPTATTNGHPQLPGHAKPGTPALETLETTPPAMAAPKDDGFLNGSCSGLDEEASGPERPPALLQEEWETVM
Description: (§1) Receptor binding assay. Peptide binding to the G protein-uncoupled receptor (R0) and G protein-coupled receptor (RG) conformations in cell membranes was assessed as previously described (26).
(§2) Experimentally, the R0 conformation is studied by including GTPγS in the reactions to uncouple receptor and G protein and the RG conformation is studied by co-expressing the receptor with a dominant negative form of Gαs (23, 25).

[2] = target: T2, MBP-PTH1R ECD-H6 fusion protein (Homo sapiens, UniProt Q03431); assay: AlphaScreen ECD-peptide competition binding assay; conditions: for IC50: biotinylated PTH(7-34)NH2 23 nM, MBP-PTH1R ECD 23 nM, read-out: IC50, competition of the AlphaScreen interaction; for ECD-binding (ability to compete biotin-PTH / MBP-PTH1R-ECD interaction): single point, peptide 20 μM, in words
T2 construct: fusion protein containing residues 29-187 of PTH1R fused to the C-terminus of MBP; made in house; host or cells: E. coli
T2 sequence (Q03431 29-187): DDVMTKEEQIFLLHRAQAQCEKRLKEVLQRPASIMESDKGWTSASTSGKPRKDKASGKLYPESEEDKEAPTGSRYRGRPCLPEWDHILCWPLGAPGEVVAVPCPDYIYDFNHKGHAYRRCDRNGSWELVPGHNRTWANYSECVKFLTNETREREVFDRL
Description: ECD-peptide binding assays. The binding of peptides to the MBP-PTH1R ECD-H6 fusion protein was assessed using an AlphaScreen assay (Perkin-Elmer). […] The pre-coupling reactions were mixed, un-labeled competitor peptides were added as indicated, and the reactions were incubated 4 to 5 hrs to reach equilibrium. Photon counts were recorded in 384-well optiplates using an Envision 2104 plate reader (Perkin-Elmer). Prism 5.0 software (GraphPad Software, San Diego) was used to fit the data to a fixed-slope dose-response inhibition equation for determination of IC50 values. Real-time analysis of the binding of peptides to the isolated PTH1R ECD using the Octet Red system (ForteBio) was performed as described in below.

[3] = target: T3, G protein-uncoupled receptor (R0) conformation of PTH1R (Homo sapiens, UniProt Q03431); assay: Receptor binding assay in cell membranes, R0 conformation; conditions: for R0 affinity compared to wild-type: in words; for RO/RG: ratio of R0 and RG IC50
T3 sequence (Q03431 27-593): T1 sequence (Q03431 27-593)
Description: as §1, §2

[4] = target: T3, G protein-uncoupled receptor (R0) conformation of PTH1R; conditions: in words, reference (26); cited from earlier work
[5] = target: T1, G protein-coupled receptor (RG) conformation of PTH1R; conditions: in words, reference (26); cited from earlier work
PTH1R ECD = target: T4, PTH1R ECD (Homo sapiens, UniProt Q03431); conditions: previous work (27); cited from earlier work
T4 sequence (Q03431 27-186 limits assumed): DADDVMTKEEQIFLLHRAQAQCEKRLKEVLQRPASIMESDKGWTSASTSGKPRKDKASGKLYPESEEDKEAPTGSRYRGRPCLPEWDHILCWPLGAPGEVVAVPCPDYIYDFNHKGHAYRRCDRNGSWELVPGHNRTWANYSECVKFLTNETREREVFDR

hPTH1R = target: T5, hPTH1R (Homo sapiens, UniProt Q03431); assay: cAMP accumulation dose-response assay in COS cells; type: cell-based
T5 construct: expressed in transfected cells; host or cells: COS-1 cells (ATCC), transient, DEAE-dextran
T5 sequence (Q03431 27-593): T1 sequence (Q03431 27-593)
Description: COS cells transiently expressing PTH1R were stimulated with the indicated peptides for 30 min at 37° C. after which the cells were lysed and cAMP content was assessed. […] The cells were stimulated with the indicated peptide for 10 min at room temperature, the ligand was washed out, and cAMP accumulation was assessed at the indicated times after wash out. The results are the average of duplicate samples and are normalized to the level of cAMP induced during the initial stimulation.
cAMP assays. COS-1 cells obtained from American Type Culture Collection (Manassas, Va.) were cultured in Dulbecco's modified Eagle's medium supplemented with 10% fetal bovine serum in a 37° C./5% CO2 incubator. 500,000 cells were seeded in a 10 cm dish and transfected the following morning by the DEAE-dextran method with 3 μg pcDNA3.1 vector encoding hPTH1R. Approximately 40,000 transfected cells were seeded in each well of a 96-well plate 24 hr post-transfection. 48 hrs post-transfection the cells were washed twice with PBS, pH 7.4 and stimulated with peptide. […] The reactions were stopped with cold 6% perchloric acid and the cell lysates were neutralized with KHCO3. cAMP was measured with a LANCE cAMP kit (Perkin-Elmer) according to the manufacturer's instructions. […]

[6] = read-out: IC50 Log M RG (converted)

Molecule | IC50 [1, 6] [nM] | RO/RG [3] | also measured
CC[C@H](C)[C@H](NC(=O)[C@H](CC(C)C)NC(=O)[C@H](Cc1c[nH]cn1)NC(=O)[C@H](Cc1c[nH]cn1)NC(=O)[C@H](CC(C)C)NC(=O)[C@H](Cc1ccccc1)NC(=O)[C@H](Cc1ccccc1)NC(=O)[C@H](CCCNC(=N)N)NC(=O)[C@H](CCCNC(=N)N)NC(=O)[C@H](CCCNC(=N)N)NC(=O)[C@H](CC(C)C)NC(=O)[C@H](CC(=O)O)NC(=O)[C@H](CCC(N)=O)NC(=O)[C@@H](NC(=O)[C@H](CO)NC(=O)[C@H](CCCCN)NC(=O)CN)[C@@H](C)CC)C(=O)N[C@@H](C)C(=O)N[C@@H](CCC(=O)O)C(=O)N[C@H](C(=O)N[C@@H](Cc1c[nH]cn1)C(=O)N[C@H](C(=O)N[C@@H](C)C(=O)O)[C@@H](C)O)[C@@H](C)CC [PTHrP(12-34)OH, reference compound] | – | – | IC50 [2]: ~2000 nM
GKHLNSMERVEWLRKKLQDVHNF-NH2 [PTH(12-34)NH2, reference compound] | – | – | IC50 [2]: ~1000 nM
PTH(1-28): PTH fragment 1-28, literature peptide (26) (SVSEIQLMHNLGKHLNSMERVEWLRKKL; Parathyroid hormone; UniProt P01270 32-59, looked up, fragment) | – | – | RG-selectivity compared to PTH(1-34) [4]: more RG-selective; RG affinity compared to PTH(1-34) [5]: diminished RG affinity
PTH(15-34)NH2: C-terminally amidated 15-34 fragment of PTH (LNSMERVEWLRKKLQDVHNF-NH2) | – | – | Kd (PTH1R ECD): ~1000 nM
SVSEIQLMHNLGKHLNSMERVEFLRKKLQDIHNF-NH2 [W23F/V31I] | – | 386 | ECD-binding (ability to compete biotin-PTH / MBP-PTH1R-ECD interaction) [2]: poor ECD-binding; R0 affinity compared to wild-type [3]: dramatically reduced R0 affinity; RG affinity compared to wild-type ([1]; in words): normal RG affinity; maximal cAMP levels relative to those obtained with the wt peptides (hPTH1R; COS cells transiently expressing PTH1R): ~80%; potency of cAMP response compared to wt peptides (hPTH1R; in words): essentially the same as the wt peptides
SVSEIQLMHNLGKHLNSMERVEFLRKLIQDIHNF-NH2 [W23F/K27L/L28I/V31I] | 0.631 | 68 | –
SVSEIQLMHNLGKHLNSMERVEFLRKLLQDVHNF-NH2 [W23F/K27L] | 0.251 | 26.4 | –
SVSEIQLMHNLGKHLNSMERVEWLRKKIQDVHNF-NH2 [L28I] | – | 45 | IC50 ([3]; n = 3, GTPγS to uncouple receptor and G protein, read-out: IC50 Log M RO (converted)): 3.98 nM; IC50 ([1]; read-out: IC50 (nM) RG): 0.1 nM
quadruply mutant PTHrP peptide: PTHrP(12-34)NH2 scaffold with swaps at all four positions 23′, 27′, 28′, 31′ (GKSIQDLRRRFWLHHKLAEVHTA-NH2) | – | – | ECD-binding (ability to compete biotin-PTH / MBP-PTH1R-ECD interaction) [2]: normal binding to the ECD

Second part, led by results:

IC50 [1, 6] [nM] | RO/RG [3] | Molecule | also measured
0.316 | – | CC[C@H](C)[C@H](NC(=O)[C@H](CC(C)C)NC(=O)[C@H](CCCCN)NC(=O)[C@H](CCCNC(=N)N)NC(=O)[C@H](CC(C)C)NC(=O)[C@H](Cc1c[nH]c2ccccc12)NC(=O)[C@H](CCC(=O)O)NC(=O)[C@@H](NC(=O)[C@H](CCCNC(=N)N)NC(=O)[C@H](CCC(=O)O)NC(=O)[C@H](CCSC)NC(=O)[C@H](CO)NC(=O)[C@H](CC(N)=O)NC(=O)[C@H](CC(C)C)NC(=O)[C@H](Cc1c[nH]cn1)NC(=O)[C@H](CCCCN)NC(=O)CNC(=O)[C@H](CC(C)C)NC(=O)[C@H](CC(N)=O)NC(=O)[C@H](Cc1c[nH]cn1)NC(=O)[C@H](CCSC)NC(=O)[C@H](CC(C)C)NC(=O)[C@H](CCC(N)=O)NC(=O)[C@@H](NC(=O)[C@H](CCC(=O)O)NC(=O)[C@H](CO)NC(=O)[C@@H](NC(=O)[C@@H](N)CO)C(C)C)[C@@H](C)CC)C(C)C)C(=O)N[C@@H](CCC(N)=O)C(=O)N[C@@H](CC(=O)O)C(=O)N[C@H](C(=O)N[C@@H](Cc1c[nH]cn1)C(=O)N[C@@H](CC(N)=O)C(=O)N[C@@H](Cc1ccccc1)C(N)=O)C(C)C [K27L/L28I] | –
0.0794 | 586 | AVSEHQLLHDKGKSIQDLRRRFWLHHKLAEVHTA-NH2 [F23W/L27K/I28L/I31V] | R0 affinity compared to wild-type [3]: slightly decreased R0 affinity
– | 190 | SVSEIQLMHNLGKHLNSMERVEFLRKKIQDVHNF-NH2 [W23F/L28I] | IC50 ([1]; read-out: IC50 (nM) RG): 0.2 nM
0.2 | 59 | SVSEIQLMHNLGKHLNSMERVEFLRKKLQDVHNF-NH2 [W23F] | –
0.251 | 135 | SVSEIQLMHNLGKHLNSMERVEWLRKKIQDIHNF-NH2 [L28I/V31I] | IC50 ([1]; read-out: IC50 (nM) RG): 0.31 nM
0.251 | 110 | SVSEIQLMHNLGKHLNSMERVEWLRKKLQDIHNF-NH2 [V31I] | IC50 ([1]; read-out: IC50 (nM) RG): 0.31 nM
0.501 | 36.8 | SVSEIQLMHNLGKHLNSMERVEWLRKLLQDIHNF-NH2 [K27L/V31I] | –
– | 11.9 | SVSEIQLMHNLGKHLNSMERVEWLRKLLQDVHNF-NH2 [K27L] | –
